In patent publication US11572590B2, “Methods for evaluating tumor cell spheroids using 3D microfluidic cell culture device” (Dana-Farber Cancer Institute, Inc., priority 2017, dated 2023):
Like-named read-outs stand apart in the source and are kept apart here.

Columns and labels:
Test in all cases: SelectScreen Kinase Profiling, single point inhibition and IC50 for off-target kinases
Format in all cases: biochemical
[1] = biological target: off-target kinases (Homo sapiens, UniProt P17252); settings: PRKCA (PKC alpha), ZLYTE, ATP Km app
[2] = biological target: T1, off-target kinases (Homo sapiens, UniProt Q9UF33); settings: EPHA6, LanthaScreen Binding
T1 sequence (Q9UF33 23-1036): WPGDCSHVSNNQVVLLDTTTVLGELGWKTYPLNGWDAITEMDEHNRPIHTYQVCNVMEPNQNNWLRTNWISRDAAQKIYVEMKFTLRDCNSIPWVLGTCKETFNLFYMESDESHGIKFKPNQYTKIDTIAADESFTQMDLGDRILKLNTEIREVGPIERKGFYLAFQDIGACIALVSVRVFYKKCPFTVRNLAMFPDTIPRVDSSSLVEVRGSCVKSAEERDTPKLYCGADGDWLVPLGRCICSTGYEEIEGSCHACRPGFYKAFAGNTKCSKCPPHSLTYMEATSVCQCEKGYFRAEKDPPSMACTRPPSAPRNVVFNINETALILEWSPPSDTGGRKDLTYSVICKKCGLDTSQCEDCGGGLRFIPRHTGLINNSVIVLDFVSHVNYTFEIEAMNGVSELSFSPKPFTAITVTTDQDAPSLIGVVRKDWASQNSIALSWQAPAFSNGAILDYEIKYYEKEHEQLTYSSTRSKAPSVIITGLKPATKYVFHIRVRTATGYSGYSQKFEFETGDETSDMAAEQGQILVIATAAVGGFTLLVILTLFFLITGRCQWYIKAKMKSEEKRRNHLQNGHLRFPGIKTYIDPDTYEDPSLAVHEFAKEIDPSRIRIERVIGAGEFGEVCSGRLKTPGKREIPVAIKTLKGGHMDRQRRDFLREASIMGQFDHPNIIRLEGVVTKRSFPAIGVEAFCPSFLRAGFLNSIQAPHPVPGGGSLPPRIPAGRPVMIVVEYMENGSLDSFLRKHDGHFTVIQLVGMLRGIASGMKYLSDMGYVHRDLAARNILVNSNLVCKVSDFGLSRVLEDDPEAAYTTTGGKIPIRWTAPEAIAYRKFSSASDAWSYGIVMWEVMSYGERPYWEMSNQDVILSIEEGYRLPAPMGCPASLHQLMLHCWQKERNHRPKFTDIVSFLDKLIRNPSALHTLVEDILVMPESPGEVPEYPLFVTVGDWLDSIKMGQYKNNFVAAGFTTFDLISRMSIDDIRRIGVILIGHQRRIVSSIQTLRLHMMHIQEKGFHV

[3] = biological target: off-target kinases (Homo sapiens, UniProt O60674, V617F); settings: JAK2 JH1 JH2 V617F, ATP Km app, ZLYTE
Sequence of off-target kinases (Homo sapiens, UniProt O60674, V617F) (O60674 whole entry V617F): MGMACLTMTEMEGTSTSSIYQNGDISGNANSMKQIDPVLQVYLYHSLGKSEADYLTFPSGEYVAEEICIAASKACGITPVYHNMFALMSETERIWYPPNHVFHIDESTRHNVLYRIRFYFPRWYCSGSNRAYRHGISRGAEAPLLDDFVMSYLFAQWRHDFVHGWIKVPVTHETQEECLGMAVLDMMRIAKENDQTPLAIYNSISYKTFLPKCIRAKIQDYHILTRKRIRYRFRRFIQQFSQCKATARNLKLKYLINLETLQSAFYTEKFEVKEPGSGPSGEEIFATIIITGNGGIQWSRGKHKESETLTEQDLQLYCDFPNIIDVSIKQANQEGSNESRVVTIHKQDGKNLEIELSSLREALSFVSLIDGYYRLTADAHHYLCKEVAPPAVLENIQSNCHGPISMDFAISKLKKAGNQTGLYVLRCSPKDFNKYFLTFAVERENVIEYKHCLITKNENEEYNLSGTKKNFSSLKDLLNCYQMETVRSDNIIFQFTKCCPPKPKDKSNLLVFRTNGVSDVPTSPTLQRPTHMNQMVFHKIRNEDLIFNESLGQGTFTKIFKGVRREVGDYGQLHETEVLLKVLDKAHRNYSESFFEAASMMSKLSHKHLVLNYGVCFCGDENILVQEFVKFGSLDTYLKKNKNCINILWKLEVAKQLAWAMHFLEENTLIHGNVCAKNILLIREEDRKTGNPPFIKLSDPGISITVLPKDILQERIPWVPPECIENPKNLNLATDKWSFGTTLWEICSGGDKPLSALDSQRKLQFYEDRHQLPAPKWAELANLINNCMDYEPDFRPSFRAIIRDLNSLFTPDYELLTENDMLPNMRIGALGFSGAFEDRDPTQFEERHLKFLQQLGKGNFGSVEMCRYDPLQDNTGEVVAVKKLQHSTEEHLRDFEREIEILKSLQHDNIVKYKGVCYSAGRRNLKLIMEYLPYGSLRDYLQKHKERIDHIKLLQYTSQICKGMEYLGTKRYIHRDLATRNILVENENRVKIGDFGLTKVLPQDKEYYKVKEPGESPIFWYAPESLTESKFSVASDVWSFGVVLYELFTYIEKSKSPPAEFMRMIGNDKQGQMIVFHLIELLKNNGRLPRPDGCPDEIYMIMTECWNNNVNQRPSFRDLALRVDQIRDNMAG

[4] = biological target: off-target kinases (Homo sapiens, UniProt Q9UM73, R1275Q); settings: ALK R1275Q (mutant), LanthaScreen Binding
Sequence of off-target kinases (Homo sapiens, UniProt Q9UM73, R1275Q) (Q9UM73 19-1620 R1275Q): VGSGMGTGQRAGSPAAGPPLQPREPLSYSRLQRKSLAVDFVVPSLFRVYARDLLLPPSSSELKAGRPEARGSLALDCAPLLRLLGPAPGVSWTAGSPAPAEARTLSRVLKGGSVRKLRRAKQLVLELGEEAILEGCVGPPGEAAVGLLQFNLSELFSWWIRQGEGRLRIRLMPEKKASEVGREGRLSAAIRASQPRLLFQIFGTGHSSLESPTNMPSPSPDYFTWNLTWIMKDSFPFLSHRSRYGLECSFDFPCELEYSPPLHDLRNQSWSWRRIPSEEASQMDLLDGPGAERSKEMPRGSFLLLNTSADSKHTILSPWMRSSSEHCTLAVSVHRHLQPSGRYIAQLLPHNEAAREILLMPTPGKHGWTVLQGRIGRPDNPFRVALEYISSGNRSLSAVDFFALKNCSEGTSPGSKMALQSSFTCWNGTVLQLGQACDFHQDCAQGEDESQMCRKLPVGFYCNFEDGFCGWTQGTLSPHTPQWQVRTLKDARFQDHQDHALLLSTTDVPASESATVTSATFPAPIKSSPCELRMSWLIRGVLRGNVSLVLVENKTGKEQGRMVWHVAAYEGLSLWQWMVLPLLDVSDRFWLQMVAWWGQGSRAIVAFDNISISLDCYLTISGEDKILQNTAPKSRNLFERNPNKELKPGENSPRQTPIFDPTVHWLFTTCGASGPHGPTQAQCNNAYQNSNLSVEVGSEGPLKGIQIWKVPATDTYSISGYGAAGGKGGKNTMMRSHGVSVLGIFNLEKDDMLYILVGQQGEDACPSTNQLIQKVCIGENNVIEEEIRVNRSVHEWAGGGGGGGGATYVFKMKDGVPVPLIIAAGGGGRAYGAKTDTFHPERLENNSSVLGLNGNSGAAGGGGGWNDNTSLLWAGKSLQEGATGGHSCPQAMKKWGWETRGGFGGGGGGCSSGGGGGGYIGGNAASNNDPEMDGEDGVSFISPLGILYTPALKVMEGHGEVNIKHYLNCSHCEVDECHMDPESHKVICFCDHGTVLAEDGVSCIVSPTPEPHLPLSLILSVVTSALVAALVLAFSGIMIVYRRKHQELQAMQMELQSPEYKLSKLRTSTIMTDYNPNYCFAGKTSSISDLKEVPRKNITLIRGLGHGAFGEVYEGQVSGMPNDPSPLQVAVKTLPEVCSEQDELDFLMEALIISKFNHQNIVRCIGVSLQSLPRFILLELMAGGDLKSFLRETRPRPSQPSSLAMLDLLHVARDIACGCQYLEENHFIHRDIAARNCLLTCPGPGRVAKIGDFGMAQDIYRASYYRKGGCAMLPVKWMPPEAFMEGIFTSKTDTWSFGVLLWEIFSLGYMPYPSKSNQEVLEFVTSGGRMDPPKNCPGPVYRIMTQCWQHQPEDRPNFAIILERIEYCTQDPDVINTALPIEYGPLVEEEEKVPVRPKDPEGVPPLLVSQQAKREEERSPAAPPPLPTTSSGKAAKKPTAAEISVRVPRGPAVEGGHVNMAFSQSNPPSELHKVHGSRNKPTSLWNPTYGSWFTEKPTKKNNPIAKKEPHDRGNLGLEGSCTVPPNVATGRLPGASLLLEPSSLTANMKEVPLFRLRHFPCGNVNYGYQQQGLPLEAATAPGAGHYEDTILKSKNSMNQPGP

[5] = biological target: off-target kinases (Homo sapiens, UniProt P80192); settings: MAP3K9 (MLK1), ATP Km app, ZLYTE
Sequence of off-target kinases (Homo sapiens, UniProt P80192) (P80192 whole entry): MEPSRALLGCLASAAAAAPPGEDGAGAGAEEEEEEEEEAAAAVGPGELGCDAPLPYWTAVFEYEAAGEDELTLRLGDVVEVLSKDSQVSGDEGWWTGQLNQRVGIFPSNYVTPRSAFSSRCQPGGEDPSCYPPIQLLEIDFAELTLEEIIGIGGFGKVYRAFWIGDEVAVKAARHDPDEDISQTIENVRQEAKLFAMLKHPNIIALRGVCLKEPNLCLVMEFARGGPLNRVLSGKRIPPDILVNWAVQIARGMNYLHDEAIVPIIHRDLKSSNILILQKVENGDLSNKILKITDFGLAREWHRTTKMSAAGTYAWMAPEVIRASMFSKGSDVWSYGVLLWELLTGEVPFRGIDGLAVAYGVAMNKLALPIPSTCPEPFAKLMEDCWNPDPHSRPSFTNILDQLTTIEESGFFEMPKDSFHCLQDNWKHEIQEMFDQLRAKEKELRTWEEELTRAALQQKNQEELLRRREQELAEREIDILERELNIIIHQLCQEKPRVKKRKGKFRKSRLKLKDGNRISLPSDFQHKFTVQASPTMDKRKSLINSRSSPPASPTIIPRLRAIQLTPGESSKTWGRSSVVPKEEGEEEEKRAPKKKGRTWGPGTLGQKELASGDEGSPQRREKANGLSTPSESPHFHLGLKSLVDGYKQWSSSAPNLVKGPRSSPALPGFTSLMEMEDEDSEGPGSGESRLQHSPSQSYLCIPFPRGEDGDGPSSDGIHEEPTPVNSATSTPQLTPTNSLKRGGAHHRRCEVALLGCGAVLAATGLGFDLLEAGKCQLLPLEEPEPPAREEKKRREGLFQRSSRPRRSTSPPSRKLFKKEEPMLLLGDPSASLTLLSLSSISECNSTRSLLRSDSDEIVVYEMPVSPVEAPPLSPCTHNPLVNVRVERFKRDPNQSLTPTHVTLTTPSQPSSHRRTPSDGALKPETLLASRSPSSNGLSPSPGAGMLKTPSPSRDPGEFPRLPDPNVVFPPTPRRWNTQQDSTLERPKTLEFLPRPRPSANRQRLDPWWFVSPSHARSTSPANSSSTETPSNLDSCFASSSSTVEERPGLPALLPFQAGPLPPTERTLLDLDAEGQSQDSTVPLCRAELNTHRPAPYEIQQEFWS

[6] = biological target: off-target kinases (Homo sapiens, UniProt Q9UQM7)
Sequence of off-target kinases (Homo sapiens, UniProt Q9UQM7) (Q9UQM7 whole entry): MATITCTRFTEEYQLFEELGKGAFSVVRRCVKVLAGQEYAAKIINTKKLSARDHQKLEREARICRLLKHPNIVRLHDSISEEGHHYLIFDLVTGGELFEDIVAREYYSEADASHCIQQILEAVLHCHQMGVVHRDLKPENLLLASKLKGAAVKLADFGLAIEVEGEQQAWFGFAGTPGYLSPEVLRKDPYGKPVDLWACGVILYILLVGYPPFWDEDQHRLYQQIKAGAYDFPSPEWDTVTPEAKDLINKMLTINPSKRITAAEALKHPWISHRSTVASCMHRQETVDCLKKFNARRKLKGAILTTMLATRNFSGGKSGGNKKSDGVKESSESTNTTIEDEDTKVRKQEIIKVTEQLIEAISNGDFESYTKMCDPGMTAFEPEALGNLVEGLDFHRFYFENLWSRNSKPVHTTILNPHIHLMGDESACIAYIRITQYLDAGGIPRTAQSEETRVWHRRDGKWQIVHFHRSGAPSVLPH

[7] = biological target: off-target kinases (Homo sapiens, UniProt P24723); settings: PRKCH (PKC eta), ZLYTE, ATP Km app

SMILES: N#Cc1cc(-c2ncnc(Nc3ccc(N4CCN(C5COC5)CC4)cc3)n2)ccc1OC1CCOCC1 [Compound 1, 5-(4-((4-(4-(oxetan-3-yl)piperazin-1-yl)phenyl)amino)-1,3,5-triazin-2-yl)-2-((tetrahydro-2H-pyran-4-yl)oxy)benzonitrile]
- inhibition ([1]; read-out: % Inhibition 1): 0%
- inhibition ([1]; read-out: % Inhibition 2): -5%
- inhibition ([1]; read-out: % Inhibition Avg): -2%
- inhibition ([2]; read-out: % Inhibition 1): 9%
- inhibition ([2]; read-out: % Inhibition 2): 20%
- inhibition ([2]; read-out: % Inhibition Avg): 14%
- inhibition ([3]; read-out: % Inhibition 1): 54%
- inhibition ([3]; read-out: % Inhibition 2): 50%
- inhibition ([3]; read-out: % Inhibition Avg): 52%
- inhibition ([4]; read-out: % Inhibition 1): 0%
- inhibition ([4]; read-out: % Inhibition 2): 7%
- inhibition ([4]; read-out: % Inhibition Avg): 4%
- inhibition ([5]; read-out: % Inhibition 1): 68%
- inhibition ([5]; read-out: % Inhibition 2): 73%
- inhibition ([5]; read-out: % Inhibition Avg): 70%
- inhibition ([6]; CAMK2A (CaMKII alpha), ZLYTE, ATP Km app, read-out: % Inhibition 1): 4%
- inhibition ([6]; CAMK2A (CaMKII alpha), ZLYTE, ATP Km app, read-out: % Inhibition Avg): 2%
- inhibition ([6]; read-out: % Inhibition 2): 0%
- inhibition ([7]; read-out: % Inhibition 1): 12%
- inhibition ([7]; read-out: % Inhibition 2): 8%
- inhibition ([7]; read-out: % Inhibition Avg): 10%
